These results are taken from article PMC2360155, “Novel retinoic acid metabolism blocking agents have potent inhibitory activities on human breast cancer cells and tumour growth” (British Journal of Cancer, 2007).

One experiment deals with ER-α. Put plainly: Western immunoblotting for ER-α in MCF-7 cells. The class given is cell-based, human. As to conditions: 1–10 μM, 6 days, dose-dependent. The method, then: (§1) At the end of the treatment, cells were scrapped and collected by washing with ice-cold PBS in a centrifuge tube. Cells were centrifuged at 2500 r.p.m. for 10 min, the pellet was again washed with ice-cold PBS and centrifuged. The cell pellet was then suspended in chilled cell lysis buffer (0.1 M Tris–HCl, 0.5% Triton X-100, protease inhibitor cocktail) and sonicated on ice for 10–15 s. The homogenate was kept on ice for 30 min and then centrifuged at 13 000 r.p.m. for 30 min. The supernatant was used as cell lysate. The cell lysates were stored at −80°C. Protein concentration of the cell lysates was determined using Bio-Rad protein assay reagents.
(§2) Protein lysates from MCF-7 and T47D cells were subjected to sodium dodecyl sulphate–polyacrylamide gel electrophoresis (SDS–PAGE) and immunoblotted for different proteins. […] Immunoreactive bands were visualised using the enhanced chemiluminescence detection reagents and analysis system (Amersham Bioscences) according to the manufacturer's instructions and quantified by densitometry using ImageQuant software version 5.
Figure 4 Western immunoblotting analysis of whole-cell lysates of treated MCF-7 cells for the expression of ER-α. […] Numbers below the blot show fold increase in expression of the protein as analysed by ImageQuant densitometry analysis. […]

Another experiment concerns PARP. Put plainly: Western immunoblotting for cleaved PARP in MCF-7 cells. It counts as cell-based, human. As to conditions: 5 μM, 6 days. Here is the method: as §1, §2
(§3) Figure 7 (A) Western immunoblotting of whole-cell lysates of treated MCF-7 and T47D cells for the expression of Bad. […] Numbers below the blot show fold increase in expression of the protein as analysed by ImageQuant densitometry analysis. […]

Another experiment has as its system MCF-7 tumour xenografts. Put plainly: In vivo antitumour study, ATRA and VN/14-1 alone or in combination, MCF-7 tumour xenografts. The arrangement: species or system ovariectomised female athymic nude mice. The conditions noted are these: single agents: ATRA 33.0, VN/14-1 16.5 μmol kg^−1 day^−1; 36 days. Here is the method:
The second experiment was similar to that described above, but consisted of only four groups. When the tumour volume has reached about 100 mm^3, the mice were randomly divided in to four groups of five mice each. […] These treatments continued for 36 days and the tumours were measured and processed as described above.
Procedure was similar to that described in Figure 8A.

The test system of another experiment is Bad. Put plainly: Western immunoblotting for Bad in MCF-7 and T47D cells. It counts as cell-based, human. As to conditions: 1, 5 and 10 μM each; 6 days; no significant dose-dependent effect. Here is the method: as §1, §2, §3
The target of the next experiment is T1, RARβ (Mus musculus, UniProt P22605).
T1 construct: expressed in transfected cells; host or cells: CV-1 cells
T1 sequence (P22605 1-448 isoform P22605-3): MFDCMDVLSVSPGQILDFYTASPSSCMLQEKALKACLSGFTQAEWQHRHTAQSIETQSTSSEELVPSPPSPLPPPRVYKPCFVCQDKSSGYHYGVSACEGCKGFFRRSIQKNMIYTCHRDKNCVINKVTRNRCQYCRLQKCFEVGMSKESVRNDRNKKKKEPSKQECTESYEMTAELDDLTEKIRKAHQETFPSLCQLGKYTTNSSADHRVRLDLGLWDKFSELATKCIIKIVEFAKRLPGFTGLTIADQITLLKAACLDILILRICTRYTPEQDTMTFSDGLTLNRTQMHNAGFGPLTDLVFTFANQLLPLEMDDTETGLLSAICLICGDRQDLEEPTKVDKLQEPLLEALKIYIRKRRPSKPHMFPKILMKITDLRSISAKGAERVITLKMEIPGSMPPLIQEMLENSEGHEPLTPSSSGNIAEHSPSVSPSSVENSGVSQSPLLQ
The experiment in a line: Transactivation assay (RARE-CAT reporter, CV-1 cells), RARβ. The class given is cell-based. As to conditions: 50% of maximal activity obtained with 10^−6 M all-trans-RA. Here is the method: Briefly, CV-1 cells were cotransfected with 4 μg RAR subtype (RARα, RARβ or RARγ) expression vector construct in pSG5, 4 μg RARE-CAT reporter DNA and 1 μg pCMV-β-gal DNA. Twenty-four hours following transfection, the cells were treated with various concentrations of each RAMBA ranging from 10^−11–10^−5 M along with an ethanol carrier control. Additional cells were treated with 10^−6 M all-trans-RA for normalisation. Twenty-four hours later, the cells were harvested and CAT and β-gal activities were assayed.

`CC1=C(/C=C/C(C)=C/C=C/C(C)=C/C(=O)O)C(C)(C)CCC1` [ATRA, all-trans-retinoic acid, reference compound]: in the experiment on ER-α, the “Increase in expression of ER-α” value was “from two- to eight-fold”. For the same compound, the “Increase in level of cleaved PARP (89 kDa) compared with control” value in the experiment on PARP is on record as “almost two-fold increases”. Moreover, the “Tumour growth inhibition compared with controls (in words)” value in the experiment on MCF-7 tumour xenografts is given as “modest tumour growth inhibition”. In the experiment on Bad, the “Upregulation of Bad protein” value is recorded as “about two-fold”.
Turning to `CC1=C(/C=C/C(C)=C/C=C/C(C)=C\C(=O)Nc2ccc(O)cc2)C(C)(C)CCC1n1ccnc1` (stereo not shown) [VN/69-1], on RARβ, the EC50 was over 10000 nM.
Turning to `CC1=C(/C=C/C(C)=C/C=C/C(C)=C/C(=O)O)C(C)(C)CCC1n1ccnc1` (stereo not shown) [VN/14-1], the “Increase in expression of ER-α” value in the experiment on ER-α was “from four- to six-fold”. In addition, the “Increase in level of cleaved PARP (89 kDa) compared with control” value in the experiment with PARP was “almost two-fold increases”. For the same compound, the “Tumour growth inhibition compared with controls (in words)” value in the experiment with MCF-7 tumour xenografts is given as “modest tumour growth inhibition”. Besides, the EC50 on RARβ stood at 1500 nM. Also, the “Upregulation of Bad protein” value with Bad was “about two-fold”.
